Laboratory results from PMC11363342 (ACS Central Science, 2024).
Where two headings read alike, the source gives them in different places.

Legend:
SARS-CoV-2 [1] = assay: microbe, parasite or virus in culture; format: cell-based
SARS-CoV-2 [2] = format: cell-based
SARS-CoV-2 [3] = assay: Viral load reduction assay in ALI-PBEC; format: cell-based; settings: 48 hpi
Experimental: Thus, ALI-PBEC cells were infected with SARS-CoV-2 (10^5 PFU per insert; estimated MOI ∼0.1) and treated with compounds on the apical side of the cells for 2 h. For uninfected controls, PBS was used instead of virus. The compounds were also present in the basal medium during the whole experiment until 48 hpi, when samples were harvested. […] (Figure 4D).
ALI-PBEC were pretreated with compound in the basal medium for 3 h. Cells were infected with 100 000 PFU of SARS-CoV-2/Leiden0008 per insert (estimated MOI 0.1) with compounds present in the inoculum. After 2 h at 37 °C on a rocking platform, the inoculum was removed and cells were washed three times with warm PBS. Compounds stayed present in the basal medium until 48 h postinfection. At 48 hpi the viral load was determined by plaque assay on a 200 μL apical wash (PBS incubated on the apical side of the insets for 10 min at 37 °C). For assessing cytotoxicity with the CyQuant LDH cytotoxicity assay (Thermo Fisher Scientific), 10 μL of apical wash was diluted 5 times with 40 μL of PBS. A 25 μL volume of this dilution was added to 25 μL of assay reagent and incubated for 30 min at RT in the dark. The plate was fixed and measured at a wavelength of 490 nm (Envision reader, PerkinElmer). For the activity-based probe labeling, the insets were washed one more time with PBS and processed as described previously.[52] Briefly, cells were lysed with 60 μL of potassium phosphate buffer per insert. A fluorescently labeled probe (JJB383) was diluted in MclIvaine buffer (pH 7) to a 10 μM stock and incubated for 5 min on ice. For labeling of the cell lysate, 10 μL of lysate was added to 10 μL of MclIvaine buffer and 5 μL of probe. The lysate was incubated for 30 min at 37 °C before the addition of 10 μL of Laemmli sample buffer (4×). Samples were heated at 95 °C for 5 min and separated in a 10% SDS-PAGE gel. Fluorescence was measured at a wavelength of 625 nm (Cy5) with a Uvitec Alliance Q9 imager (BioSPX). After imaging, the gels were stained with GelCode Blue stain reagent (Thermo Fisher Scientific) and visualized using a Uvitec Essential V6 system to check for equal loading.

GBA3 = settings: cited from earlier work
in vitro = settings: African green monkey
[4] = system: recombinant Mus musculus α-Glu II; assay: Thermal shift assay (SYPRO orange); format: binding; settings: 10 μM Mmα-Glu-II with 50 μM inhibitor; unliganded control 49.9 °C
HCoV-229E = format: cell-based
SARS-CoV-2 [5] = assay: CPE reduction assay on H1299/ACE2 lung epithelial cells; format: cell-based; settings: compared with Vero E6
GBA1 = settings: cited from earlier work
GBA2 = settings: cited from earlier work
SARS-CoV-2 [6] = assay: Plaque reduction assay on H1299/ACE2 cells (time of treatment); format: cell-based; settings: H1299/ACE2; compound 11 at 5 μM
Experimental: To evaluate whether compound 11 has an effect on host proteins (for instance, ACE2) involved in viral entry, we treated monolayers of H1299/ACE2 cells with compound 11 either 48 or 2 h before infection, during infection (0–1 h), or starting from 1 h postinfection (hpi). The cell monolayers were infected with ∼20 PFU of SARS-CoV-2, and after 1 h the inoculum was replaced with an overlay. In one well (Post Infection) the overlay contained compound 11. Remdesivir, a viral RNA synthesis inhibitor, was added to the overlay of another well, as a positive control for blocking virus replication in the cell.
H1299/ACE2 cells were seeded in a 6-well plate at a density of 1.3 × 10^5 cells/well (20% confluency), 96 h prior to infection. […] The monolayers were infected with ∼20 PFU of SARS-CoV-2/Leiden0008. In the postinfection treatment, the compound (or RDV) was added to the Avicel overlay. Cells were incubated for 4 days at 37 °C before fixation and crystal violet staining.

[7] = Severe acute respiratory syndrome coronavirus 2, Vero C1008, Vero E6 cells, SARS-CoV-2/Leiden0002, n = 3, mean ± SEM, read-out: EC50 (μM), SARS-CoV-2 CPE reduction
[8] = Severe acute respiratory syndrome coronavirus 2, Vero C1008, read-out: EC50 (μM), SARS-CoV-2 CPE reduction

| SMILES | EC50 (SARS-CoV-2 [1]; [7]) | CC50 at 3 days (in vitro) | further results |
| --- | --- | --- | --- |
| CCCCN1C[C@H](O)[C@@H](O)[C@H](O)[C@H]1CO [Compound 1, N-butyl-DNJ, reference compound] | 114 ± 10.3 µM | > 200 µM | EC50 (SARS-CoV-2 [1]; Vero E6 cells, SARS-CoV-2/Leiden0002, n = 3, mean ± SEM, read-out: EC50 (μM), SARS-CoV-2 CPE reduction): > 100 µM; reduction of infectious progeny production (in words) (SARS-CoV-2 [2]): only minimally; viral load in ALI-PBEC (in words) (SARS-CoV-2 [3]; 100 μM (highest concentration)): only a slight effect; inhibition of GBA3 (GBA3): inhibits |
| OC[C@@H]1[C@@H](O)[C@H](O)[C@@H](O)CN1CCCCCOCc1ccc2ccccc2c1 [Compound 2, naphthyl-deoxynojirimycin] | 6 ± 0.4 µM | > 200 µM | Tm/°C [4]: 63.5 °C; virus infectivity of HCoV-229E (in words) (HCoV-229E): did not show any reduction in virus infectivity; viral load in ALI-PBEC (in words) (SARS-CoV-2 [3]; 10 and 100 μM): reduced SARS-CoV-2 to similar titers; EC50 values in CPE reduction assay (in words) (SARS-CoV-2 [5]): comparable EC50 values |
| OC[C@@H]1[C@@H](O)[C@H](O)[C@@H](O)CN1CCCCCOCc1cc2ccccc2c2ccccc12 [Compound 3] | 3.25 ± 0.42 µM | – | CC50 (in vitro): 50 µM |
| OC[C@@H]1[C@@H](O)[C@H](O)[C@@H](O)CN1CCCCCOCC1CCCO1 (some centres unmarked) [Compound 4] | 51.7 ± 3.37 µM | > 200 µM | – |
| OC[C@@H]1[C@@H](O)[C@H](O)[C@@H](O)CN1CCCCCOCC12CC3CC(CC(C3)C1)C2 [Compound 5] | 13.9 ± 8 µM | 200 µM | – |
| CCCCCCOCCCCCN1C[C@H](O)[C@@H](O)[C@H](O)[C@H]1CO [Compound 6] | 11.8 ± 0.8 µM | > 200 µM | – |
| CC(C)(C)COCCCCCN1C[C@H](O)[C@@H](O)[C@H](O)[C@H]1CO [Compound 7] | 22.7 ± 4.3 µM | > 200 µM | – |
| OC[C@H]1[C@@H](O)[C@H](O)[C@@H](O)CN1CCCCCOCC12CC3CC(CC(C3)C1)C2 [Compound 8] | 104 ± 12.4 µM | > 200 µM | – |
| OC[C@@H]1[C@@H](O)[C@H](O)[C@@H](O)[C@H]2O[C@@H]12 [Compound 9, 1,6-epi-cyclophellitol] | > 200 µM | > 200 µM | inhibition of GBA1 (GBA1): partially inhibit; inhibition of GBA2 (GBA2): partially inhibit |
| OC[C@@H]1[C@@H](O)[C@H](O)[C@@H](O)[C@H]2N[C@@H]12 [Compound 10, 1,6-epi-cyclophellitol aziridine] | 14 ± 3.2 µM | > 200 µM | inhibition of GBA1 (GBA1): partially inhibit; inhibition of GBA2 (GBA2): partially inhibit |
| CO[C@@H]1[C@@H](O)[C@H](O)[C@@H](CO)[C@@H]2OS(=O)(=O)O[C@H]12 [Compound 12] | > 200 µM | > 200 µM | – |
| CO[C@H]1[C@H](O)[C@@H](CO)[C@@H]2OS(=O)(=O)O[C@@H]2[C@@H]1O [Compound 13] | > 200 µM | > 200 µM | – |
| CO[C@H]1[C@H](O)[C@@H](O)[C@H]2OS(=O)(=O)O[C@H]2[C@@H]1CO [Compound 14] | 16.9 ± 2.1 µM | > 200 µM | – |
| COC[C@@H]1[C@@H](O)[C@H](O)[C@@H](O)[C@H]2OS(=O)(=O)O[C@@H]12 [Compound 15] | > 100 µM | > 200 µM | – |
| CO[C@H]1[C@H]2OS(=O)(=O)O[C@H]2[C@H](CO)[C@@H](O)[C@@H]1OC [Compound 16] | > 200 µM | > 200 µM | – |
| O=S1(=O)N[C@H]2[C@H](CO)[C@@H](O)[C@H](O)[C@@H](O)[C@H]2O1 [Compound 17] | 45.3 ± 1.52 µM | > 200 µM | – |
| O=S1(=O)N[C@@H]2[C@H](O)[C@@H](O)[C@H](O)[C@@H](CO)[C@@H]2O1 [Compound 18] | > 100 µM | > 200 µM | – |
| O=S1(=O)N[C@@H]2[C@H](O)[C@@H](O)[C@H](O)[C@@H](CO)[C@@H]2N1 [Compound 19] | > 200 µM | > 200 µM | – |
| OC[C@H]1C[C@@H]2O[C@@H]2[C@@H](O)[C@@H]1O [Compound 20] | 17.7 ± 1.28 µM | > 200 µM | Tm/°C [4]: 64.7 °C |
| OC[C@H]1C[C@@H]2N[C@@H]2[C@@H](O)[C@@H]1O [Compound 21] | – | > 200 µM | EC50 (SARS-CoV-2 [1]; [8]): 67.6 ± 14.8 µM; Tm/°C [4]: 49.5 °C |
| O=S1(=O)O[C@@H]2[C@@H](O)[C@H](O)[C@@H](CO)C[C@@H]2O1 [Compound 22] | > 200 µM | > 200 µM | Tm/°C [4]: 51.7 °C |
| OC[C@H]1C[C@H]2[C@@H]([C@@H](O)[C@@H]1O)N2CCCCCOCc1ccc2ccccc2c1 (some centres unmarked) [Compound 23] | – | > 200 µM | EC50 (SARS-CoV-2 [1]; [8]): 64.9 ± 0.77 µM |
| OC[C@H]1C[C@H]2[C@@H]([C@@H](O)[C@@H]1O)N2CCCCCOCc1ccc(-c2ccccc2)cc1 (some centres unmarked) [Compound 24] | – | 200 µM | EC50 (SARS-CoV-2 [1]; [8]): 28.6 ± 0.21 µM |
| CCCC(=O)N1[C@@H]2[C@@H](O)[C@H](O)[C@@H](CO)C[C@@H]21 [Compound 25] | 22.2 ± 4.12 µM | > 200 µM | – |
| CCCCN1[C@@H]2[C@@H](O)[C@H](O)[C@@H](CO)C[C@@H]21 (some centres unmarked) [Compound 26] | – | > 200 µM | EC50 (SARS-CoV-2 [1]; [8]): 91.4 ± 20.6 µM |
| OC[C@H]1C[C@H]2[C@@H]([C@@H](O)[C@@H]1O)N2CCCCCOCC12CC3CC(CC(C3)C1)C2 (some centres unmarked) [Compound 27] | – | 100 µM | EC50 (SARS-CoV-2 [1]; [8]): 26.9 ± 1.3 µM |
| OC[C@H]1C[C@H]2[C@@H]([C@@H](O)[C@@H]1O)N2CCCCCOCc1cccc2ccccc12 (some centres unmarked) [Compound 28] | – | > 200 µM | EC50 (SARS-CoV-2 [1]; [8]): 56.7 ± 1.38 µM |
| COCCCCCCCCCN1C[C@H](O)[C@@H](O)[C@H](O)[C@H]1CO [UV-4, reference compound] | – | – | EC50 values in CPE reduction assay (in words) (SARS-CoV-2 [5]): comparable EC50 values |
| CCC(CC)COC(=O)[C@H](C)N[P@](=O)(OC[C@H]1O[C@@](C#N)(c2ccc3c(N)ncnn23)[C@H](O)[C@@H]1O)Oc1ccccc1 [remdesivir, reference compound] | – | – | plaque formation, treatment after infection (in the overlay) (SARS-CoV-2 [6]): prevented the formation of plaques |
